Results reported in US10995101B2, “2-oxo-thiazole derivatives as A2A inhibitors and compounds for use in the treatment of cancers” (iTeos Therapeutics SA, priority 2017, dated 2021).

Assays:
[1] = target: A2A receptor (Homo sapiens, UniProt P29274); test: Inhibition of cAMP production in HEK cells; format: cell-based; details: HEK-293 cells with A2A receptor
Protocol: When the A2A receptor is activated, is induces the production of cAMP.
HEK-293 cells with a stable transfection of A2A receptor were bought from PerkinElmer® (# ES-011-C). […] Fresh media without the selection marker was added on the day immediately before the experiment to stop selection pressure.
Stimulation buffer b) mimics the human situation by increasing the amount of albumin present in the assay.
Compounds of the present invention were diluted 100× in either of the buffers depending on the assay performed. […] The total volume of the reaction was 20 μl (10 μl of cells, 5 μl of antagonist and 5 μl of agonist). The reaction was finalized by adding 10 μl of 4× EU-cAMP tracer working solution and 10 μl of 4× ULight-anti-cAMP working solution. The TR-FRET signal was measured after 1 hour using a Spectramax Paradigm (Molecular Devices).

[2] = in vitro; details: human, Caco-2, pH 7.4
[3] = IC50 (nM) (3 nM NECA as agonist, 0.1% BSA), 3 nM NECA as agonist, 0.1% BSA
[4] = IC50 (nM) (5 nM NECA as agonist, 2% HSA), 5 nM NECA as agonist, 2% HSA
[5] = IC50 (nM) (5 μM Adenosine as agonist, 2.0% HSA), 5 μM Adenosine as agonist, 2.0% HSA

Chain of A2A receptor (P29274 whole entry): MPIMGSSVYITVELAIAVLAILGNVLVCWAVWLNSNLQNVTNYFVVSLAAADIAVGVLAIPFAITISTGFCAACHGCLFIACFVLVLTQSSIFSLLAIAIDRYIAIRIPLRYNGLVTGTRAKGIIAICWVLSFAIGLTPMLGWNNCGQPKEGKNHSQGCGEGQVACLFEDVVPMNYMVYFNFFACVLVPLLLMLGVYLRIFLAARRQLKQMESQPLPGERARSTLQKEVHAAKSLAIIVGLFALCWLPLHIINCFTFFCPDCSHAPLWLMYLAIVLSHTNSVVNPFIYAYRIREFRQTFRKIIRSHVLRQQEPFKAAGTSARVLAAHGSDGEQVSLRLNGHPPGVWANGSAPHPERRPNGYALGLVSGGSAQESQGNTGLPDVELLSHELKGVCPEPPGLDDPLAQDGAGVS

SMILES | IC50 [1, 3] | IC50 [1, 4] | IC50 [1, 5] | efflux ratio at 120 min, 2 μM [2]
C[S@+]([O-])CCOc1ccc(N2CCN(CCn3c(=O)sc4c3nc(N)n3nc(-c5ccco5)nc43)CC2)c(F)c1 (single isomer, unassigned) [Compound 5] | 0.4 nM | 8 nM | 241 nM | 67
C[S@@+]([O-])CCOc1ccc(N2CCN(CCn3c(=O)sc4c3nc(N)n3nc(-c5ccco5)nc43)CC2)c(F)c1 (single isomer, unassigned) [Compound 6] | 0.5 nM | 8 nM | 179 nM | 59
C[S@@+]([O-])c1ccc(N2CCN(CCn3c(=O)sc4c3nc(N)n3nc(-c5ccco5)nc43)CC2)c(F)c1 (single isomer, unassigned) [Compound 119] | 0.4 nM | – | 183 nM | 31
C[S@+]([O-])c1ccc(N2CCN(CCn3c(=O)sc4c3nc(N)n3nc(-c5ccco5)nc43)CC2)c(F)c1 (single isomer, unassigned) [Compound 120] | 0.4 nM | – | 123 nM | 33
Nc1nc2c(sc(=O)n2CCN2CCN(c3ccc(O[C@H]4CC[S@@+]([O-])CC4)cc3F)CC2)c2nc(-c3ccco3)nn12 (single isomer, unassigned) [Compound 121, 5-amino-3-(2-(4-(2-fluoro-4-(((1s,4s)-1-oxidotetrahydro-2H-thiopyran-4-yl)oxy)phenyl)piperazin-1-yl)ethyl)-8-(furan-2-yl)thiazolo[5,4-e][1,2,4]triazolo[1,5-c]pyrimidin-2(3H)-one] | 0.8 nM | – | 232 nM | 90
Nc1nc2c(sc(=O)n2CCN2CCN(c3ccc(O[C@H]4CC[S@+]([O-])CC4)cc3F)CC2)c2nc(-c3ccco3)nn12 (single isomer, unassigned) [Compound 122, 5-amino-3-(2-(4-(2-fluoro-4-(((1r,4r)-1-oxidotetrahydro-2H-thiopyran-4-yl)oxy)phenyl)piperazin-1-yl)ethyl)-8-(furan-2-yl)thiazolo[5,4-e][1,2,4]triazolo[1,5-c]pyrimidin-2(3H)-one] | 0.8 nM | – | 187 nM | 349
Nc1nc2c(sc(=O)n2CCN2CCN(c3cc(O[C@@H]4CNC[C@H]4F)c(F)cc3F)CC2)c2nc(-c3ccco3)nn12 (stereo in doubt) [Compound 91, 5-amino-3-(2-(4-(2,4-difluoro-5-(((3R,4R)-4-fluoropyrrolidin-3-yl)oxy)phenyl)piperazin-1-yl)ethyl)-8-(furan-2-yl)thiazolo[5,4-e][1,2,4]triazolo[1,5-c]pyrimidin-2(3H)-one] | 0.8 nM | – | 168 nM | 195
Nc1nc2c(sc(=O)n2CCN2CCN(c3ccncc3F)CC2)c2nc(-c3ccco3)nn12 [Compound 3, 5-amino-3-(2-(4-(3-fluoropyridin-4-yl)piperazin-1-yl)ethyl)-8-(furan-2-yl)thiazolo[5,4-e][1,2,4]triazolo[1,5-c]pyrimidin-2(3H)-one] | – | – | – | 4
Nc1nc2c(sc(=O)n2CCN2CCN(c3ccc(OCCO)cc3)CC2)c2nc(-c3ccco3)nn12 [Compound 9, 5-amino-8-(furan-2-yl)-3-(2-(4-(4-(2-hydroxyethoxy)phenyl)piperazin-1-yl)ethyl)thiazolo[5,4-e][1,2,4]triazolo[1,5-c]pyrimidin-2(3H)-one] | 3.4 nM | – | – | 8
Nc1nc2c(sc(=O)n2CCN2CCN(c3ccc(OCC(=O)O)cc3)CC2)c2nc(-c3ccco3)nn12 [Compound 10, 2-(4-(4-(2-(5-amino-8-(furan-2-yl)-2-oxothiazolo[5,4-e][1,2,4]triazolo[1,5-c]pyrimidin-3(2H)-yl)ethyl)piperazin-1-yl)phenoxy)acetic acid] | 2.3 nM | 14 nM | 607 nM | 24
Nc1nc2c(sc(=O)n2CCN2CCN(c3ccc(OCC(=O)N4CCNCC4)cc3F)CC2)c2nc(-c3ccco3)nn12 [Compound 24, 5-amino-3-(2-(4-(2-fluoro-4-(2-oxo-2-(piperazin-1-yl)ethoxy)phenyl)piperazin-1-yl)ethyl)-8-(furan-2-yl)thiazolo[5,4-e][1,2,4]triazolo[1,5-c]pyrimidin-2(3H)-one] | 0.8 nM | 2 nM | 137 nM | 117
CN(CCOc1ccc(N2CCN(CCn3c(=O)sc4c3nc(N)n3nc(-c5ccco5)nc43)CC2)c(F)c1)CC(N)=O [Compound 46, 2-((2-(4-(4-(2-(5-amino-8-(furan-2-yl)-2-oxothiazolo[5,4-e][1,2,4]triazolo[1,5-c]pyrimidin-3(2H)-yl)ethyl)piperazin-1-yl)-3-fluorophenoxy)ethyl)(methyl)amino)acetamide] | – | – | – | 30
Nc1nc2c(sc(=O)n2CCN2CCN(c3cc(OCCCC(=O)O)c(F)cc3F)CC2)c2nc(-c3ccco3)nn12 [Compound 65, 4-(5-(4-(2-(5-amino-8-(furan-2-yl)-2-oxothiazolo[5,4-e][1,2,4]triazolo[1,5-c]pyrimidin-3(2H)-yl)ethyl)piperazin-1-yl)-2,4-difluorophenoxy)butanoic acid] | 0.6 nM | 27 nM | 494 nM | –
CCOC(=O)COc1cc(N2CCN(CCn3c(=O)sc4c3nc(N)n3nc(-c5ccco5)nc43)CC2)c(F)cc1F [Compound 73, ethyl 2-(5-(4-(2-(5-amino-8-(furan-2-yl)-2-oxothiazolo[5,4-e][1,2,4]triazolo[1,5-c]pyrimidin-3(2H)-yl)ethyl)piperazin-1-yl)-2,4-difluorophenoxy)acetate] | 3.4 nM | 8 nM | 304 nM | –
Nc1nc2c(sc(=O)n2CCN2CCN(c3ccncc3)CC2)c2nc(-c3ccco3)nn12 [Compound 75, 5-amino-8-(furan-2-yl)-3-(2-(4-(pyridin-4-yl)piperazin-1-yl)ethyl)thiazolo[5,4-e][1,2,4]triazolo[1,5-c]pyrimidin-2(3H)-one] | 24 nM | 100 nM | – | –
Nc1nc2c(sc(=O)n2CCN2CCN(c3ccncn3)CC2)c2nc(-c3ccco3)nn12 [Compound 76, 5-amino-8-(furan-2-yl)-3-(2-(4-(pyrimidin-4-yl)piperazin-1-yl)ethyl)thiazolo[5,4-e][1,2,4]triazolo[1,5-c]pyrimidin-2(3H)-one] | 5 nM | 151 nM | – | –
CN(C)CCNC(=O)c1cc(N2CCN(CCn3c(=O)sc4c3nc(N)n3nc(-c5ccco5)nc43)CC2)c(F)cc1F [Compound 81, 5-(4-(2-(5-amino-8-(furan-2-yl)-2-oxothiazolo[5,4-e][1,2,4]triazolo[1,5-c]pyrimidin-3(2H)-yl)ethyl)piperazin-1-yl)-N-(2-(dimethylamino)ethyl)-2,4-difluorobenzamide] | 117 nM | – | – | –
Nc1nc2c(sc(=O)n2CCN2CCN(c3cc(O[C@@H]4CNC[C@@H]4F)c(F)cc3F)CC2)c2nc(-c3ccco3)nn12 [Compound 93, 5-amino-3-(2-(4-(2,4-difluoro-5-(((3R,4S)-4-fluoropyrrolidin-3-yl)oxy)phenyl)piperazin-1-yl)ethyl)-8-(furan-2-yl)thiazolo[5,4-e][1,2,4]triazolo[1,5-c]pyrimidin-2(3H)-one] | 0.4 nM | – | 33 nM | –
Nc1nc2c(sc(=O)n2CCN2CCN(c3cc(O[C@H]4CNC[C@H]4F)c(F)cc3F)CC2)c2nc(-c3ccco3)nn12 [Compound 94, 5-amino-3-(2-(4-(2,4-difluoro-5-(((3S,4R)-4-fluoropyrrolidin-3-yl)oxy)phenyl)piperazin-1-yl)ethyl)-8-(furan-2-yl)thiazolo[5,4-e][1,2,4]triazolo[1,5-c]pyrimidin-2(3H)-one] | – | – | – | 173
Nc1nc2c(sc(=O)n2CCN2CCN(c3cc(OCC(=O)NCCN4CCOCC4)c(F)cc3F)CC2)c2nc(-c3ccco3)nn12 [Compound 97, 2-(5-(4-(2-(5-amino-8-(furan-2-yl)-2-oxothiazolo[5,4-e][1,2,4]triazolo[1,5-c]pyrimidin-3(2H)-yl)ethyl)piperazin-1-yl)-2,4-difluorophenoxy)-N-(2-morpholinoethyl)acetamide] | 1.1 nM | – | 30 nM | –
Nc1nc2c(sc(=O)n2CCN2CCN(c3ccc(OCC(=O)NCCN4CCOCC4)cc3F)CC2)c2nc(-c3ccco3)nn12 [Compound 105, 2-(4-(4-(2-(5-amino-8-(furan-2-yl)-2-oxothiazolo[5,4-e][1,2,4]triazolo[1,5-c]pyrimidin-3(2H)-yl)ethyl)piperazin-1-yl)-3-fluorophenoxy)-N-(2-morpholinoethyl)acetamide] | 0.7 nM | – | 95 nM | –
Nc1nc2c(sc(=O)n2CCN2CCN(c3ccc(C(=O)NCCN4CCOCC4)cc3F)CC2)c2nc(-c3ccco3)nn12 [Compound 106, 4-(4-(2-(5-amino-8-(furan-2-yl)-2-oxothiazolo[5,4-e][1,2,4]triazolo[1,5-c]pyrimidin-3(2H)-yl)ethyl)piperazin-1-yl)-3-fluoro-N-(2-morpholinoethyl)benzamide] | 0.3 nM | – | 205 nM | –
Nc1nc2c(sc(=O)n2CCN2CCN(c3cc(OC[C@@H](O)CO)c(F)cc3F)CC2)c2nc(-c3ccco3)nn12 [Compound 127, (S)-5-amino-3-(2-(4-(5-(2,3-dihydroxypropoxy)-2,4-difluorophenyl)piperazin-1-yl)ethyl)-8-(furan-2-yl)thiazolo[5,4-e][1,2,4]triazolo[1,5-c]pyrimidin-2(3H)-one] | 0.5 nM | – | 35 nM | –
